Key:
[1] = test system: PC3-luc cells; assay: PCa intracardiac injection model, bone destruction by CT and survival; assay type: in vivo, mice
[2] = test system: RAW 267.4 cells; assay: Osteo Assay pit formation, osteoclast-mediated bone degradation; assay type: cell-based, mouse
[3] = test system: prostate specific antigen (PSA); assay: PSA expression by qRT/PCR in LNCaP cells; assay type: cell-based, human; details: LNCaP cells in androgen depleted media
Description: (§1) Cells were cultured in media depleted of androgen and after a washout of 72 hrs were treated with the synthetic androgen R1881, KBU2046, enzalutamide and/or vehicle (control), and resultant effects upon induction of the androgen-responsive gene, prostate specific antigen (PSA) were measured (FIG. 3A).
(§2) LNCaP or VCaP cells cultured in hormone free media were treated with R1881 (R), KBU2046 (46) and/or enzalutamide (E). (FIGS. 3A and 3B) Effects on AR-responsive gene expression. PSA expression was measured by qRT/PCR, normalized to GAPDH and expressed as a percent of control cells (N=3 replicates); * denotes P<0.05 for groups separated by bar. (FIGS. 3C and 3D) Effects on cell growth. Three day growth assays were performed. Data are the number of viable cells, expressed as % of control (N=3 replicates); * P<0.05 compared to control. (E) Effects on AR activation. Western blots of nuclear (N) and cytoplasmic (C) preparations of cell extracts were probed for AR, laminin 1 or α-tubulin. (FIGS. 3F and 3G) Effects on tumor outgrowth after androgen deprivation therapy. LNCaP/AR-luc cells were implanted subcutaneously (N=6 mice/cohort) or orthotopic (N=15 mice/cohort were implanted; N=5 yielded tumors) into castrate mice, treatment with KBU2046 began as noted, and weekly IVIS imaging performed. Data are tumor size, expressed as luminescence intensity. All data are expressed as mean±SEM.
(§3) RNA was isolated and qRT/PCR performed as previously described by us (Ding et al., J Biomol Tech 18, 321-330 (2007)). Resultant data were analyzed using the 2^−ΔΔt method (Livak et al., Methods 25, 402-408 (2001)), normalized to GAPDH, for the following primer/probe sets (ABI) PSA (Hs02576345_m1) and GAPDH (Hs99999905_m1). Assays were performed in triplicate, and were repeated.

[4] = test system: prostate specific antigen (PSA); assay: PSA expression by qRT/PCR in VCaP cells; assay type: cell-based, human; details: VCaP cells in androgen depleted media
Description: as §1, §2, §3

[5] = test system: RAW 267.4 cells; assay: Osteoclast morphology and maturation (actin/DAPI immunofluorescence, TRAP staining); assay type: cell-based, mouse; details: Raf1-specific inhibitors; TRAP staining, multinucleated cells, resorptive cavity formation
Text: Treatment of RAW 267.4 cells with KBU2046 induces several structural and functional changes. It reduces RANKL-mediated formation of multinucleated cells, and those that do form have lower numbers of nuclei (see 40× panels, FIG. 4B). The characteristic prominent actin ring (white arrow) surrounding the resorptive cavity (yellow arrow) is readily apparent in control cells treated with RANKL ligand, but is lacking in KBU2046-treated cells (100×, panels). Consistent with it inhibiting maturation of RAW 267.4 cells, TRAP staining is decreased in KBU2046-treated cells (FIG. 4C).
FIG. 4 represents the KBU2046 inhibition of osteoclast function. FIG. 4A compares effects on Raf1 activation. RAW 267.4 cells were treated with RANKL for 4 days, treated with 10 μM KBU2046 for the indicated time periods, and Western blot for the denoted proteins performed. (B) Effects on cell morphology. RAW 267.4 cells were treated with RANKL and with KBU2046 for 4 days, or not, and denoted, and stained for actin (green) and DAPI (blue); white arrow denotes an actin ring, yellow arrow a resorptive cavity. Representative immunofluorescent images are depicted. (C) Tartrate resistant acid phosphatase (TRAP) expression. Cells were treated as in B, stained for TRAP (denoted by presence of red), and representative images from light microscopy depicted. (D) Bone degradation. RAW 267.4 cells were plated onto Osteo Assay plates, treated with RANKL for 6 days and with KBU2046 (or vehicle for controls) as indicated and bone surface area quantified. Data are the mean±SEM (N=3 replicates) of bone surface area, expressed as the percentage of control cells; * denotes P<0.05 compared to control.
Raw 264.7 cells were grown in differentiation medium (described below), with or without KBU2046, for 4 days on a Chamber Slide (Nunc Lab-Tek). Chambers were washed once with PBS, followed by 10-minute fixation in cold 10% neutral-buffered formalin (VWR) and a post-fixation wash with PBS. […] The cells were then incubated for 2 hours at 4° C. in Dylight Phallodin (Cell Signaling technology, #12935) antibody diluted 1:40 in 1×PBS with 1% BSA and 0.3% Triton X-100. Subsequently, the slide was washed once with PBS, a coverslip mounted with ProLong Gold Antifade Reagent with DAPI (Cell Signaling Technology, #8961), and imaged on a Confocal Microscope (Nikon/Yokogawa Spinning Disc).

[6] = experimental compounds with RANKL, day 6, FIGS. 6A-6L
[7] = Raf1-specific inhibitors, Supplementary Fig. S5

Q: Which survival ([1]; 10, 100 or 1000 ug/kg weekly intraperitoneal, from 1 week before IC injection) does the source give for O=C(CCOCCNC(=O)COc1ccc2c(c1)OCC(c1ccc(F)cc1)C2=O)NCCCC(O)(P(=O)(O)O)P(=O)(O)O (centres unmarked) [Compound E (n=1), (4-(3-(2-(2-((3-(4-fluorophenyl)-4-oxochroman-7-yl)oxy)acetamido)ethoxy)propanamido)-1-hydroxybutane-1,1-diyl)bis(phosphonic acid)] here?
A: Its survival is “prolongs”.

Q: And the “bone destruction in the jaw” value ([1]; 10, 100 or 1000 μg/kg weekly intraperitoneal, from 1 week before IC injection, CT)?
A: The value was “inhibits”.

Q: What about the osteoclast-mediated bone degradation [2, 6] of the same compound?
A: The osteoclast-mediated bone degradation was “inhibiting”.

Q: O=C(CCOCCOCCNC(=O)COc1ccc2c(c1)OCC(c1ccc(F)cc1)C2=O)NCCCC(O)(P(=O)(O)O)P(=O)(O)O (centres unmarked) [Compound E (n=2), (1-((3-(4-fluorophenyl)-4-oxochroman-7-yl)oxy)-17-hydroxy-2,12-dioxo-6,9-dioxa-3,13-diazaheptadecane-17,17-diyl)bis(phosphonic acid)] was tested. Which osteoclast-mediated bone degradation [2, 6] did it give?
A: The osteoclast-mediated bone degradation was “inhibiting”.

Q: For O=C(CCOCCOCCOCCCNC(=O)COc1ccc2c(c1)OCC(c1ccc(F)cc1)C2=O)NCCCC(O)(P(=O)(O)O)P(=O)(O)O (centres unmarked) [Compound E (n=3), (1-((3-(4-fluorophenyl)-4-oxochroman-7-yl)oxy)-21-hydroxy-2,16-dioxo-7,10,13-trioxa-3,17-diazahenicosane-21,21-diyl)bis(phosphonic acid)], which osteoclast-mediated bone degradation [2, 6] is on record?
A: Its osteoclast-mediated bone degradation is “inhibiting”.

Q: For O=C(CCOCCNC(=O)COc1ccc2c(c1)OCC(c1ccc(F)cc1)C2=O)NCC(O)C[n+]1ccn(CC(O)(P(=O)(O)O)P(=O)(O)O)c1 (centres unmarked) [Compound G, 3-(3-(3-(2-(2-((3-(4-fluorophenyl)-4-oxochroman-7-yl)oxy)acetamido)ethoxy)propanamido)-2-hydroxypropyl)-1-(2-hydroxy-2,2-diphosphonoethyl)-1H-imidazol-3-ium], which osteoclast-mediated bone degradation [2, 6] is on record?
A: Its osteoclast-mediated bone degradation is “inhibiting”.

Q: O=C(CCOCCOCCOCCNC(=O)COc1ccc2c(c1)OCC(c1ccc(F)cc1)C2=O)NCC(O)C[n+]1ccn(CC(O)([PH](=O)O)P(=O)(O)O)c1 (centres unmarked) [Compound H, (2-(3-(1-((3-(4-fluorophenyl)-4-oxochroman-7-yl)oxy)-15-(I1-oxidaneyl)-2,12-dioxo-6,9-dioxa-3,13-diazahexadecan-16-yl)-1H-3I4-imidazol-1-yl)-1-hydroxyethane-1,1-diyl)bis(hydrogen phosphonate)] was tested. Which osteoclast-mediated bone degradation [2, 6] did it give?
A: The osteoclast-mediated bone degradation was “inhibiting”.

Q: O=C(CCOCCOCCOCCOCCNC(=O)COc1ccc2c(c1)OCC(c1ccc(F)cc1)C2=O)NCC(O)C[n+]1ccn(CC(O)([PH](=O)O)P(=O)(O)O)c1 (centres unmarked) [Compound I, (2-(3-(1-((3-(4-fluorophenyl)-4-oxochroman-7-yl)oxy)-18-(I1-oxidaneyl)-2,15-dioxo-6,9,12-trioxa-3,16-diazanonadecan-19-yl)-1H-3I4-imidazol-1-yl)-1-hydroxyethane-1,1-diyl)bis(hydrogen phosphonate)] was tested. Which osteoclast-mediated bone degradation [2, 6] did it give?
A: The osteoclast-mediated bone degradation was “inhibiting”.

Q: For C[C@]1(O)CC[C@H]2[C@@H]3CCC4=CC(=O)CCC4=C3C=C[C@@]21C [Compound R1881], which PSA expression [3] is on record?
A: The PSA expression was “significantly increased”.

Q: And the PSA expression [4]?
A: Its PSA expression is “significantly increased”.

Q: Which RANKL-induced osteoclast maturation [5] does the source give for O=C1Nc2ccc(I)cc2/C1=C/c1cc(Br)c(O)c(Br)c1 [GW5074] here?
A: Its RANKL-induced osteoclast maturation is “inhibit”.

Q: And the osteoclast-mediated bone degradation [2, 7]?
A: Its osteoclast-mediated bone degradation is “inhibit”.

Q: With Cc1ccc(C(=O)Nc2cccc(C(F)(F)F)c2)cc1Nc1nc(-c2cccnc2)nc2c1cnn2C [NVP-BHG712] as the compound, how does the RANKL-induced osteoclast maturation [5] read?
A: Its RANKL-induced osteoclast maturation is “inhibit”.

Q: And the osteoclast-mediated bone degradation [2, 7]?
A: The osteoclast-mediated bone degradation was “inhibit”.

Q: For O=P(O)(O)C(O)(Cn1ccnc1)P(=O)(O)O [ZA, zoledronic acid], which “improvement of femur bone density compared to control” value ([1]; oral 150 mg KBU2046/kg daily, intraperitoneal ZA 100 μg/kg weekly, CT) is on record?
A: Its value is 56±2.7%.

Q: Cc1ccc(NC(=O)c2cccc(N(C)C)c2)cc1NC(=O)c1ccc(O)cc1 [ZM336372] was tested. Which RANKL-induced osteoclast maturation [5] did it give?
A: Its RANKL-induced osteoclast maturation is “inhibit”.

Q: And the osteoclast-mediated bone degradation [2, 7]?
A: Its osteoclast-mediated bone degradation is “inhibit”.
